Source: PMC9658513, “Discovery of Compounds That Selectively Repress the Amyloidogenic Processing of the Amyloid Precursor Protein: Design, Synthesis and Pharmacological Evaluation of Diphenylpyrazoles” (International Journal of Molecular Sciences, 2022)
Where two headings read alike, the source gives them in different places.

How the values were obtained:
Aβ1–40 peptide secretion [1] = conditions: SY5Y cells; cited from earlier work
SY5Y-APP^695WT cells [2] = conditions: 50% cell death after 72 h treatment; read-out: Cytotox. CC50; cited from earlier work
[3] = tested on: AICD (APP intracellular domain); assay: AICD level by Western blotting in SY5Y-APP^WT cells; type: cell-based, human; conditions: concentration increasing AICD 20-fold vs untreated control, read-out: AICD (C20)
Experimental: (§1) The final and selected intermediate compounds were evaluated for their ability to modulate APP processing in the SH-SY5Y human neuroblastoma cell line stably expressing the neuronal isoform of human wild-type APP^695 (SY5Y-APP^WT), a well-established model for the study of APP metabolism. APP carboxy-terminal fragments (αCTFs and AICD) levels were assessed by Western blotting (WB). The effect of the reference and test compounds on αCTFs and AICD is expressed as the intensity of corresponding WB bands. The concentration of compounds able to increase 20-times αCTFs and AICD (C20) when compared to the control condition was calculated. Selected compounds were also evaluated for their ability to modulate the secretion of soluble APP fragments (sAPPα and sAPPβ). Aβ1–x levels (Aβ1–40 and Aβ1–42) after treatment with the reference and tested compounds were measured in the cell media by ELISA (Table 1). […] Selected hit compounds were then further evaluated for their ability to decrease the level of N-truncated Aβ peptides (Aβx–38, Aβx–40, and Aβx–42).
(§2) The human neuroblastoma cell line SY5Y-APP^695WT was maintained in Dulbecco’s modified Eagle medium (DMEM, high glucose, pyruvate—GIBCO, Life Technologies, Carlsbad, CA, USA) supplemented with 10% fetal bovine serum, 2 mM L-glutamine, 1 mM non-essential amino acids and penicillin/streptomycin (GIBCO, Life Technologies, Carlsbad, CA, USA) at 37 °C in a 5% CO2 humidified incubator [36]. For compound treatment, a 10 mM stock solution was diluted in freshly supplemented DMEM medium to obtain the precise final concentration of the drug. Cells were plated at a density of 5 × 10^5 cells per well into 12-well plates and cultured with 1 mL supplemented DMEM cell medium for 24 h before compound exposure. The following day, the cell medium was replaced with fresh medium containing the compounds diluted at the indicated concentrations. Cells were treated for 24 h. At the end of the treatments, the cell medium was collected and kept at −80 °C until use, cells were rinsed once with PBS and extracted in 100 µL of Laemmli buffer (10 mM Tris, 20% glycerol, and 2% sodium dodecyl sulfate) using a cell-scraper. The cell lysate was further sonicated (30 pulses of 0.5 s, 60 Hz) for 5 min. Total protein concentration was determined using the Pierce BCA Protein Assay Kit (Thermo Scientific, Waltham, MA, USA) according to the manufacturer’s instructions. Samples were stored at −80 °C until analysis.
(§3) Cell protein lysates were prepared for Western blot analysis by diluting the sample with 1 volume of NuPAGE® lithium dodecyl sulfate (LDS) 2X sample buffer supplemented with 20% NuPAGE® sample reducing agents (Invitrogen). Samples were heated for 10 min at 100 °C. Ten µg of total proteins per well were loaded onto precast 4–12% Criterion XT Bis-Tris polyacrylamide gels (Bio-Rad) and electrophoresis was achieved after applying a tension of 150 V for 90 min using a Criterion electrophoresis cell with the NuPAGE® MOPS SDS running buffer (1X). Proteins were transferred to a nitrocellulose membrane of […] pore size (G&E Healthcare, Madison, WI, USA) using the Criterion blotting system and applying a tension of 100 V for 45 min. To resolve proteins of low molecular weights such as carboxy-terminal fragments of APP, 12% Criterion XT Bis-Tris polyacrylamide gels (Bio-Rad, Hercules, CA, USA) were used, and electrophoresis was performed for 70 min at 150 V in a NuPAGE® MES SDS running buffer (1X). Proteins were transferred to a nitrocellulose membrane of 0.2 µm pore size (G&E Healthcare, Madison, WI, USA) at 100 V for 40 min. Molecular weight calibration was achieved using molecular weight markers (Novex and Magic Marks, Life Technologies, Carlsbad, CA, USA). Protein transfer and quality were determined by a reversible Ponceau Red coloration (0.2% xylidine Ponceau Red and 3% trichloroacetic acid). […]

sAPPα = sAPPα secretion (MSD sAPPα/sAPPβ Multiplex Kit); type: cell-based, human; conditions: concentration increasing sAPPα 1.5-fold vs untreated control
Experimental: (§4) A selection of compounds with several selected activities was performed including sAPPα and sAPPβ, which were further explored. […] The decrease in Aβ could result from a decrease in either β- or γ-secretase cleavage or an increase in the α-secretase cleavage of APP. Thus, medium concentrations of sAPPβ and sAPPα, which are the β- and α-secretase extramembrane shed APP fragments, were determined after cell drug treatments.
as §2, with “The cell lysate was further sonicated (30 pulses of 0.5 s, 60 Hz) for 5 min.” left out, “Samples were stored at −80 °C until analysis.” left out
(§5) Aβ1–40/Aβ1–42 peptides, Aβx–38/Aβx–40/Aβx–42, and sAPPα/sAPPβ concentrations in pg/mL were determined, respectively, using amyloid-beta 40 and 42 Human ELISA Kits (Invitrogen), the V-PLEX Plus Aβ Peptide Panel 1 (4G8) Kit (Meso Scale Diagnostics, MSD R©, Rockville, MD, USA), and the sAPPα/sAPPβ Multiplex Kit (Meso Scale Diagnostics, MSD R©, Rockville, MD, USA) according to the manufacturer’s instructions.

Aβ1–42 peptide secretion = assay: Aβ1–42 secretion in cell medium by ELISA; type: cell-based, human; conditions: SY5Y-APP^WT cells, 24 h treatment, mean ± SD of at least three experiments in triplicate
Experimental: as §1, §2
(§6) Conditioned media of SY5Y-APP^695WT collected at the end of treatments were centrifuged at 1000× g for 5 min to eliminate cell debris.
as §5

[4] = tested on: αCTF (APP carboxy-terminal fragment); assay: αCTF level by Western blotting in SY5Y-APP^WT cells; type: cell-based, human; conditions: for EC (20-fold increase): concentration increasing αCTF 20-fold vs untreated control, SY5Y-APP^WT cells, read-out: αCTF (C20)
Experimental: as §1, §2, §3

sAPPβ secretion = sAPPβ secretion (MSD sAPPα/sAPPβ Multiplex Kit); type: cell-based, human; conditions: SY5Y cells, mean ± SD of at least three experiments in triplicate
Experimental: as §4, §2, §6, §5

Aβ1–40 peptide secretion [5] = assay: Aβ1–40 secretion in cell medium by ELISA; type: cell-based, human
Experimental: as §1, §2, §6, §5

in vitro = type: cell-based, human; conditions: human
Experimental: (§7) Cytotoxicity was measured using 3-(4,5-dimethylthiazol-2-yl)-5-(3-carboxymethoxyphenyl)-2-(4-sulfophenyl)-2H-tetrazolium (MTS) tests. SY5Y-APP^695WT cells were plated in a 96-well plate at 3 × 10^4 cells per well and allowed to attach for 24 h. Cells were then incubated for 72 h with 100 µL of DMEM with 10% SVF containing (or not) the defined concentration of drugs. Cytotoxicity was determined by using the colorimetric MTS assay (Cell Titer 96® Aqueous One Solution Cell Proliferation Assay-MTS Promega, Madison, WI, USA) according to the manufacturer’s instructions. Absorbance was read at 490 nm.

p62/LC3 = assay: Ratio between p62 and LC3 expression levels; type: cell-based, human; conditions: compound at 3 µM, 24 h, SY5Y-APP^wt cells
Description: Compounds from both series were selected to first determine the potential relationship between the repression of Aβ1–x production and the increased expression of LC3 and p62. […] We then also considered the ratio between the p62 and LC3 expression levels.
Figure 3 Effect of compounds 24, 33, 34, 57, 65, 67, 70, and 71 on the autophagic flux in SY5Y-APP^wt cells. […] Cell lysates were immunolabeled with the following antibodies: p62 (a), LC3 (b), and β-actin. Statistical significance was set at * p < 0.05, ** p < […], *[…], **** p < 0.0001, and ns as not significant.

SY5Y-APP^695WT cells [6] = assay: in vitro; type: cell-based, human
Experimental: as §7

Molecule	IC50 (Aβ1–40 peptide secretion [1]) [µM]	CC50 (SY5Y-APP^695WT cells [2]) [µM]	EC (20-fold increase) ([3]; Homo sapiens) [µM]	sAPPα C1.5 (sAPPα) [µM]	IC50 (Aβ1–42 peptide secretion; Homo sapiens) [µM]	C20 for CTFα and AICD ([4]; CTFα and AICD together)	EC (20-fold increase) ([4]; Homo sapiens) [µM]	IC50 (sAPPβ secretion; Homo sapiens) [µM]	IC50 (Aβ1–40 peptide secretion [5]; Homo sapiens, Aβ1–40 and Aβ1–42 not distinguished, read-out: IC50 for Aβ secretion (Aβ1–x production)) [nM]	IC50 (Aβ1–40 peptide secretion [5]; Homo sapiens, SY5Y-APP^WT cells, 24 h treatment, mean ± SD of at least three experiments in triplicate, read-out: Aβ1–40 IC50) [nM]	CC50 at 72 h (in vitro) [nM]	EC (20-fold increase) [3] [µM]	IC50 (Aβ1–42 peptide secretion) [µM]	EC (20-fold increase) [4] [µM]	IC50 (sAPPβ secretion) [µM]	IC50 (Aβ1–40 peptide secretion [5]; SY5Y-APP^WT cells, 24 h treatment, mean ± SD of at least three experiments in triplicate, read-out: Aβ1–40 IC50) [nM]	p62/LC3 (p62/LC3)	CC50 (SY5Y-APP^695WT cells [6]) [µM]	Cytotox. CC50 (SY5Y-APP^695WT cells [6]) [µM]
CCN(CC)CCCC(C)Nc1ccnc2cc(Cl)ccc12 (centres unmarked) [CQ, chloroquine, reference compound]	7	30	–	–	–	–	–	–	–	–	–	–	–	–	–	–	–	–	–
Cc1cn(-c2cccc(CN(C)CCCN(C)C)c2)nc1-c1ccc(CN(C)CCCN(C)C)cc1 [Compound 69, [3-(Dimethylamino)propyl][(4-{1-[3-({[3-(dimethylamino)propyl](methyl)amino}methyl)phenyl]-4-methyl-1H-pyrazol-3-yl}phenyl)methyl]methylamine]	–	–	1	>5	1.6 ± 0.1	around 1 µM	0.6	2.8 ± 1.1	~1000	1400 ± 100	2000	–	–	–	–	–	–	–	–
N′-[[3-[4-(Dimethylaminomethyl)-3-[4-[3-(dimethylamino)propyl]phenyl] Pyrazol-1-yl]phenyl]methyl]-N,N,N′-trimethyl-propane-1,3-diamine [Compound 34]	–	–	–	>10	–	–	–	–	–	–	–	1.9	8.3 ± 0.2	1.1	4.5 ± 0.7	5700 ± 500	0.91	> 100	100
